Assay results: US20140045860A1, “SMALL MOLECULE INHIBITORS FOR TREATING PARASITIC INFECTIONS” (NEW YORK UNIVERSITY, priority 2011, published 2014)
“And” between values parts separate entries of the source, which are not always exact repeats. Equal entries are not always repeated. Where two headings read alike, the source gives them in different places.

Key:
Format in all cases: cell-based
T. cruzi [1] = assay: T. cruzi inhibition assay (beta-galactosidase T. cruzi co-cultured with NIH/3T3 host cells); settings: Trypanosoma cruzi, NIH3T3; Table 2
Procedure: (§1) A high-throughput screen of small molecules was performed in duplicate in the recombinant Tulahuen strain of T. cruzi stably expressing a beta-galactosidase reporter gene. Trypomastogote-stage parasites were co-cultured with mouse fibroblast NIH/3T3 host cells, (Buckner F S, Verlinde C L, La Flamme A C, Van Voorhis W C. Efficient technique for screening drugs for activity against Trypanosoma cruzi using parasites expressing beta-galactosidase. Antimicrob Agents Chemother. 1996; 40(11): 2592-2597). Signal was normalized to neutral (DMSO) controls, and a 75% inhibition cutoff was used to define a hit. Compounds initially designated as hits were retested in dose in the primary assay to confirm their inhibitory activity. In parallel, compounds were tested in toxicity assays against NIH/3T3 host cells to determine if these compounds were cytotoxic to mammalian cells and thus, false positives. Compounds that reduced the viability of NIH/3T3 cells were excluded as viable hits. A subset of hits were then tested in a similar infection assay with the Tulahuen strain of T. cruzi infecting murine L-6 cells and the intracellular T. cruzi immunofluorescence assay described below.
1. T. cruzi Inhibition Assay
98% DMEM, Phenol Red, 2% FBS, and 1% PSG were mixed and filtered through a 0.2 microns membrane. The cells were kept at 4° C., then warmed up to 37° C. in a water bath before use.
Gal-Screen. Using a Gal-Screen base kit, Buffer B (Catalog no. T2361) was mixed with 1:25 substrate (Catalog no. T2359).
NIH/3T3 cells were cultivated in DMEM supplemented with 10% FBS and 1% PSG in T175 in 50 mL total of medium.
Parasite Culture: T. cruzi β-gal (Tc): T. cruzi β-gal were cultivated in DMEM supplemented with 2% FBS and 1% PSG in T175 flasks with vented caps in 50 mL total of medium.
2. Growth Inhibition Assay for HTS (384-Well Plates)
The medium was warmed up with 2% FBS/DMEM. The parasites were harvested in 50-mL tubes, and spun for 10 minutes at 2200 rpm. Approximately 15 mL of media was aspirated, and the samples were incubated for 3-5 h. The NIH/3T3 cells were trypsinized (refer to cell culture protocol). When the NIH/3T3 cells were detached, the cells were harvested in DMEM, 2% FBS, and 1% PSG, then counted using the Nexcelom cellometer. The cells were diluted to 166,667 cells/mL, then added to a flask and plated 5,000 cells/30 μL per well using a standard cassette multiwall drob Combi. The cells were incubated for 3 h, then T. cruzi cells were counted, diluted to 0.166 million cells/mL, and transferred to a 2-liter flask. Then, […] compounds/DMSO were pinned to each well with NIH/3T3 cells. Next, 30 μL/well of parasites (5000 T. cruzi) were added with a standard cassette multiwall drop Combi on slow speed, and incubated for 4 days (or a minimum of 90 h). Gal-Screen was prepared, 30 μL per well were dispensed in a 384-well plate, incubated for 60 minutes, and the luminescence was read using Envision (Perkin-Elmer) at 0.1 sec/well.

L. don. axen. = assay: In vitro counter screen, L. don. axen.
Procedure: (§2) In vitro counter screens were performed to confirm our findings.

[2] = In vitro counter screen, cytotoxicity L6; settings: murine
T. cruzi [3] = assay: In vitro counter screen, T. cruzi; settings: Trypanosoma cruzi
Procedure: as §1, §2

P. falc. K1 = assay: In vitro counter screen, P. falc. K1
Procedure: as §2

T. b. rhod. = assay: In vitro counter screen, T. b. rhod.
Procedure: as §2

[4] = same result as ug/mL, in uM, read-out: L. don. Axen (IC50 uM)
[5] = read-out: T. cruzi IC50 (ug/mL)
[6] = same result as ug/mL, in uM, read-out: P. falc. K1 (IC50 uM)
[7] = read-out: T. b. rhod. (IC50, ug/mL)
[8] = same result as ug/mL, in uM, read-out: T. b. rhod (IC50 uM)

C[C@H]1CN([C@@H](C)CO)C(=O)c2cccc(NC(=O)c3ccncc3)c2O[C@@H]1CN(C)Cc1ccc(Oc2ccccc2)cc1 [Compound 40]
IC50 (T. cruzi [1]): < 0.0026 µM

C[C@@H]1CN([C@H](C)CO)C(=O)c2cccc(NC(=O)c3ccncc3)c2O[C@H]1CN(C)Cc1ccc(Oc2ccccc2)cc1 [Compound 41]
IC50 (T. cruzi [1]): 0.000529 µM

C[C@H](CO)N1C[C@H](C)[C@@H](CN(C)Cc2ccc(C(F)(F)F)cc2)Oc2c(NC(=O)c3ccncc3)cccc2C1=O [Compound 13]
IC50 (L. don. axen.; read-out: L. don. axen. IC50): 16.3 µg/mL | IC50 (L. don. axen.; [4]): 28.6 µM | IC50 [2]: 79.7 µM and 45.5 µg/mL | IC50 (T. cruzi [3]; read-out: T. cruzi (IC50 uM)): 0.875 µM | IC50 (T. cruzi [3]; [5]): 0.499 µg/mL | IC50 (P. falc. K1; read-out: P. falc. K1 IC50): 2.95 µg/mL | IC50 (P. falc. K1; [6]): 5.17 µM | IC50 (T. b. rhod.; [7]): 3.49 µg/mL | IC50 (T. b. rhod.; [8]): 6.12 µM

Cc1cc(C(=O)Nc2cccc3c2O[C@@H](CN(C)Cc2ccc(Oc4ccccc4)cc2)[C@H](C)CN([C@@H](C)CO)C3=O)n(C)n1 [Compound 35]
IC50 (T. cruzi [1]): > 10 µM

C[C@@H]1CN([C@@H](C)CO)C(=O)c2cccc(NC(=O)c3ccncc3)c2O[C@H]1CN(C)CC1CCCCC1 [Compound 42]
IC50 (T. cruzi [1]): 0.0421 µM

C[C@@H]1CN([C@H](C)CO)C(=O)c2cccc(NC(=O)c3ccncc3)c2O[C@@H]1CN(C)Cc1ccc(Oc2ccccc2)cc1 [Compound 28]
IC50 (T. cruzi [1]): 0.0426 µM

C[C@@H]1CN([C@@H](C)CO)C(=O)c2cc(-c3ccncc3)cnc2O[C@H]1CN(C)Cc1ccc(Oc2ccccc2)cc1 [Compound 31]
IC50 (T. cruzi [1]): 1.28 µM

C[C@@H]1CN([C@H](C)CO)C(=O)c2cccc(NC(=O)c3ccncc3)c2O[C@H]1CN(C)Cc1ccccc1 [Compound 37]
IC50 (T. cruzi [1]): 0.0153 µM

C[C@@H]1CN([C@@H](C)CO)C(=O)c2cc(-c3cccnc3)cnc2O[C@H]1CN(C)Cc1ccc(Oc2ccccc2)cc1 [Compound 43]
IC50 (T. cruzi [1]): 9.27 µM

COc1ccc(CN(C)C[C@@H]2Oc3c(NC(=O)c4ccncc4)cccc3C(=O)N([C@@H](C)CO)C[C@H]2C)cc1 [Compound 39]
IC50 (T. cruzi [1]): 0.011 µM

C[C@@H]1CN([C@H](C)CO)C(=O)c2cccc(NC(=O)c3ccncc3)c2O[C@H]1CN(C)Cc1ccccc1 [Compound 9]
IC50 (L. don. axen.; read-out: L. don. axen. IC50): 84.4 µg/mL | IC50 (L. don. axen.; [4]): 168 µM | IC50 [2]: > 199 µM and > 100 µg/mL | IC50 (T. cruzi [3]; read-out: T. cruzi (IC50 uM)): 0.304 µM | IC50 (T. cruzi [3]; [5]): 0.153 µg/mL | IC50 (P. falc. K1; read-out: P. falc. K1 IC50): 4.83 µg/mL | IC50 (P. falc. K1; [6]): 9.61 µM | IC50 (T. b. rhod.; [7]): 35.1 µg/mL | IC50 (T. b. rhod.; [8]): 69.8 µM

C[C@H](CO)N1C[C@H](C)[C@@H](CN(C)Cc2ccc(Oc3ccccc3)cc2)Oc2c(NC(=O)c3ccncc3)cccc2C1=O [Compound 24]
IC50 (T. cruzi [1]): < 0.0026 µM

C[C@@H]1CN([C@@H](C)CO)C(=O)c2cc(Br)cnc2O[C@H]1CN(C)Cc1ccc2c(c1)OCO2 [Compound 25]
IC50 (T. cruzi [1]): > 10 µM

C[C@@H]1CN([C@@H](C)CO)C(=O)c2cccc(NC(=O)c3ccncc3)c2O[C@H]1CN(C)Cc1ccccc1Cl [Compound 26]
IC50 (T. cruzi [1]): 0.0039 µM

C[C@@H]1CN([C@@H](C)CO)C(=O)c2cccc(NC(=O)c3ccncc3)c2O[C@H]1CN(C)Cc1ccc(Oc2ccccc2)cc1 [Compound 21]
IC50 (T. cruzi [1]): < 0.0026 µM

C[C@H]1CN([C@@H](C)CO)C(=O)c2cccc(NC(=O)c3ccncc3)c2O[C@H]1CN(C)Cc1ccc(-c2ccccc2)cc1 [Compound 20]
IC50 (L. don. axen.; read-out: L. don. axen. IC50): 6.47 µg/mL | IC50 (L. don. axen.; [4]): 11.2 µM | IC50 [2]: 30.2 µM and 17.5 µg/mL | IC50 (T. cruzi [3]; read-out: T. cruzi (IC50 uM)): 0.394 µM | IC50 (T. cruzi [3]; [5]): 0.228 µg/mL | IC50 (P. falc. K1; read-out: P. falc. K1 IC50): 1.14 µg/mL | IC50 (P. falc. K1; [6]): 1.97 µM | IC50 (T. b. rhod.; [7]): 6.41 µg/mL | IC50 (T. b. rhod.; [8]): 11.1 µM

C[C@@H]1CN([C@H](C)CO)C(=O)c2cccc(NC(=O)c3ccncc3)c2O[C@H]1CN(C)Cc1ccc2c(c1)OCO2 [Compound 27]
IC50 (T. cruzi [1]): 0.00148 µM

C[C@@H]1CN([C@@H](C)CO)C(=O)c2cccc(NC(=O)c3cnccn3)c2O[C@H]1CN(C)Cc1ccc(Oc2ccccc2)cc1 [Compound 38]
IC50 (T. cruzi [1]): 1 µM

C[C@H](CO)N1C[C@H](C)[C@H](CN(C)Cc2ccccc2)Oc2c(NC(=O)c3ccncc3)cccc2C1=O [Compound 1]
IC50 (L. don. axen.; read-out: L. don. axen. IC50): > 100 µg/mL | IC50 (L. don. axen.; [4]): > 199 µM | IC50 [2]: > 199 µM and > 100 µg/mL | IC50 (T. cruzi [3]; read-out: T. cruzi (IC50 uM)): 1.24 µM | IC50 (T. cruzi [3]; [5]): 0.622 µg/mL | IC50 (P. falc. K1; read-out: P. falc. K1 IC50): 20.6 µg/mL | IC50 (P. falc. K1; [6]): 41 µM | IC50 (T. b. rhod.; [7]): 75.4 µg/mL | IC50 (T. b. rhod.; [8]): 150 µM

COc1ccc(CN(C)C[C@@H]2Oc3c(NC(=O)c4ccncc4)cccc3C(=O)N([C@H](C)CO)C[C@H]2C)cc1 [Compound 5]
IC50 (L. don. axen.; read-out: L. don. axen. IC50): > 100 µg/mL | IC50 (L. don. axen.; [4]): > 188 µM | IC50 [2]: > 188 µM and > 100 µg/mL | IC50 (T. cruzi [3]; read-out: T. cruzi (IC50 uM)): 1.31 µM | IC50 (T. cruzi [3]; [5]): 0.699 µg/mL | IC50 (P. falc. K1; read-out: P. falc. K1 IC50): 7.39 µg/mL | IC50 (P. falc. K1; [6]): 13.9 µM | IC50 (T. b. rhod.; [7]): 20.2 µg/mL | IC50 (T. b. rhod.; [8]): 37.9 µM

C[C@@H](CO)N1CC[C@H](CN(C)Cc2cccc(Cl)c2)Oc2c(NC(=O)c3ccncc3)cccc2C1=O [Compound 22]
IC50 (T. cruzi [1]): < 0.0026 µM

C[C@@H]1CN([C@@H](C)CO)C(=O)c2cccc(NC(=O)c3ccncc3)c2O[C@H]1CN(C)Cc1ccc(-c2ccccc2)cc1 [Compound 7]
IC50 (L. don. axen.; read-out: L. don. axen. IC50): 13.3 µg/mL | IC50 (L. don. axen.; [4]): 23 µM | IC50 [2]: 23.3 µM and 13.5 µg/mL | IC50 (T. cruzi [3]; read-out: T. cruzi (IC50 uM)): 0.123 µM | IC50 (T. cruzi [3]; [5]): 0.071 µg/mL | IC50 (P. falc. K1; read-out: P. falc. K1 IC50): 1.2 µg/mL | IC50 (P. falc. K1; [6]): 2.07 µM | IC50 (T. b. rhod.; [7]): 0.729 µg/mL | IC50 (T. b. rhod.; [8]): 1.26 µM

C[C@@H]1CN([C@@H](C)CO)C(=O)c2cc(-c3cncnc3)cnc2O[C@H]1CN(C)Cc1ccc(Oc2ccccc2)cc1 [Compound 33]
IC50 (T. cruzi [1]): > 10 µM

C[C@@H]1CN([C@@H](C)CO)C(=O)c2cccc(NC(=O)c3ccncc3)c2O[C@@H]1CN(C)Cc1ccc(Oc2ccccc2)cc1 [Compound 32]
IC50 (T. cruzi [1]): 0.00434 µM

CC(C)N1C[C@@H](C)[C@H](CN(C)Cc2ccc(Oc3ccccc3)cc2)Oc2c(NC(=O)c3ccncc3)cccc2C1=O [Compound 34]
IC50 (T. cruzi [1]): < 0.0026 µM

C[C@H]1CN([C@@H](C)CO)C(=O)c2cccc(NC(=O)c3ccncc3)c2O[C@H]1CN(C)Cc1ccc(Oc2ccccc2)cc1 [Compound 29]
IC50 (T. cruzi [1]): < 0.0026 µM

C[C@@H]1CN([C@@H](C)CO)C(=O)c2cccc(NC(=O)c3ccncc3)c2O[C@H]1CN(C)Cc1ccc2c(c1)OCO2 [Compound 36]
IC50 (T. cruzi [1]): 0.00659 µM

C[C@@H]1CN([C@H](C)CO)C(=O)c2cccc(NC(=O)c3ccncc3)c2O[C@H]1CN(C)Cc1ccc2c(c1)OCO2 [Compound 8]
IC50 (L. don. axen.; read-out: L. don. Axen (IC50 uM)): > 183 µM | IC50 ([2]; L6 cells, same result as ug/mL, in uM, read-out: cytotox, (IC50 uM)): > 183 µM | IC50 (T. cruzi [3]; read-out: T. cruzi (IC50 uM)): 0.143 µM | IC50 (P. falc. K1; [6]): 10.6 µM | IC50 (T. b. rhod.; [8]): 12.5 µM

C[C@@H]1CN([C@@H](C)CO)C(=O)c2cccc(NC(=O)c3ccncc3)c2O[C@H]1CN(C)C [Compound 23]
IC50 (T. cruzi [1]): > 10 µM

C[C@@H]1CN([C@@H](C)CO)C(=O)c2cccc(NC(=O)c3ccncc3)c2O[C@H]1CN(C)Cc1ccc(Cl)cc1 [Compound 30]
IC50 (T. cruzi [1]): < 0.0026 µM
